Assay results: patent US20140323349A1, “COMPOSITIONS AND METHODS FOR MONITORING AND DETECTING CANCEROUS CONDITIONS” (PHIGENIX, INC., priority 2011, published 2014)
Entries after “also recorded” stand apart in the source; their conditions may differ.

Key:
Assay type in all cases: cell-based, human
phospho-STAT3 = experiment: Western blot of phospho-STAT3; details: DU145
Method: (§1) Western blot analysis was performed as described in Example 2. […] After washing, the membranes were incubated with anti-rabbit antibody conjugated to horseradish peroxidase (HRP) (dilution 1:5000; Sigma), and signal detection was visualized using chemilluminescence reagents (Pierce) on an Alpha Innotech Fluorchem 8900. As a control, blots were stripped and re-probed with mouse anti-β-actin primary antibody (1:5000; Sigma-Aldrich) and HRP-conjugated anti-mouse secondary antibody (1:5000; Sigma-Aldrich), and signal detection was again visualized.

PAX2 protein = experiment: Western blot analysis of PAX2 protein; details: DU145; 5 uM Los, 25 uM U0126, 20 uM PD98059, 250 μM AICAR
Method: Briefly, cells were harvested by trypsinization and washed twice with PBS. Lysis buffer was prepared according to the manufacturer's instructions (Sigma), and was then added to the cells. Following a 15 minute incubation period at 4° C. on an orbital shaker, cell lysate were then collected and centrifuged for 10 minutes at 12000×g to pellet cellular debris. The protein-containing supernatant were then collected and quantitated. Next, 25 μg protein extract was loaded onto an 8-16% gradient SDS-PAGE (Novex). Following electrophoresis, proteins were transferred to PVDF membranes, and then blocked with 5% nonfat dry milk in TTBS (0.05% Tween 20 and 100 mM Tris-C1) for 1 hour. Blots were then probed with rabbit anti-PAX2 primary antibody (Zymed, San Francisco, Calif.) at a 1:2000 dilution. After washing, the membranes were incubated with anti-rabbit antibody conjugated to horseradish peroxidase (HRP) (dilution 1:5000; Sigma), and signal detection was visualized using chemilluminescence reagents (Pierce) on an Alpha Innotech Fluorchem 8900. As a control, blots were stripped and reprobed with mouse anti-β-actin primary antibody (1:5000; Sigma-Aldrich) and HRP-conjugated anti-mouse secondary antibody (1:5000; Sigma-Aldrich) and signal detection was again visualized.
Western blot analysis was performed as described in Example 2. Blots were then probed with primary antibody (anti-PAX2, -phospho-PAX2, -JNK, -phospho-JNK, -ERK1/2, or -phospho-ERK1/2) (Zymed, San Francisco, Calif.) at 1:1000-2000 dilutions. After washing, the membranes were incubated with anti-rabbit antibody conjugated to horseradish peroxidase (HRP) (dilution 1:5000; Sigma), and signal detection was visualized using chemilluminescence reagents (Pierce) on an Alpha Innotech Fluorchem 8900. As a control, blots were stripped and re-probed with mouse anti-β-actin primary antibody (1:5000; Sigma-Aldrich) and HRP-conjugated anti-mouse secondary antibody (1:5000; Sigma-Aldrich), and signal detection was again visualized.

phospho-PAX2 = experiment: Western blot of phospho-PAX2; details: DU145
Method: as §1

PAX2 = PAX2 expression after treatment with AngII or receptor blockers
Method: Western blot analysis was performed as described in Example 2. […] After washing, the membranes were incubated with anti-rabbit antibody conjugated to horseradish peroxidase (HRP) (dilution 1:5000; Sigma), and signal detection was visualized using chemilluminescence reagents (Pierce) on an Alpha Innotech Fluorchem 8900. As a control, blots were stripped and re-probed with mouse anti-β-actin primary antibody (1:5000; Sigma-Aldrich) and HRP-conjugated anti-mouse secondary antibody (1:5000; Sigma-Aldrich), and signal detection was again visualized. Quantitative real-time RT-PCR was performed as described in Example 1 to verify changes in gene expression following PAX2 knockdown in PC3 and DU145 prostate cancer cell lines and the hPrEC normal prostate epithelial cells. Forty cycles of PCR were performed under standard conditions using an annealing temperature of 60° C. Quantification was determined by the cycle number where exponential amplification began (threshold value) and averaged from the values obtained from the triplicate repeats. There was an inverse relationship between message level and threshold value. In addition, GAPDH was used as a housekeeping gene to normalize the initial content of total cDNA. Relative expression was calculated as the ratio between each genes and GAPDH. All reactions were carried out in triplicate.

increase in PAX2 expression (PAX2; DU145, 48 hours) [fold] | increase in PAX2 expression (PAX2; DU145, 96 hours) [fold] | SMILES | phospho-STAT3 protein levels (phospho-STAT3) | PAX2 expression / protein levels (PAX2 protein) | phospho-PAX2 protein levels (phospho-PAX2)
 |  | NC(=O)c1ncn([C@@H]2O[C@H](CO)[C@@H](O)[C@H]2O)c1N [AICAR, 5-Aminoimidazole-4-carboxamide-1-β-4-ribofuranoside] | suppressed; also recorded: suppress phospho-STAT3 protein levels | suppression of PAX2 pression expression; also recorded: suppress PAX2 protein levels | suppression; also recorded: suppress phospho-PAX2 protein expression levels
 |  | COc1cccc(-c2cc(=O)c3ccccc3o2)c1N [PD98059] | reduced phospho-STAT3 protein levels; also recorded: suppress phospho-STAT3 protein levels | decreased PAX2; also recorded: suppress PAX2 protein levels | significant decrease or suppression of phospho-PAX2 protein levels; also recorded: suppress phospho-PAX2 protein expression levels
7 | 8 | Cc1cc(Cn2cnc3c2C[C@@H](C(=O)O)N(C(=O)C(c2ccccc2)c2ccccc2)C3)ccc1N(C)C [PD123319] |  |  | 
